Values after ≈ are worked out from the molar mass of the structure shown.
Legend:
Assay type in all cases: functional
Enterococcus faecalis = test: In vitro minimum inhibitory concentration against Streptococcus faecalis (ATCC 29212)
Bacteroides fragilis = test: In vitro minimum inhibitory concentration against Bacteroides fragilis (ATCC 25285)
Mus musculus [1] = test: In vivo antibacterial activity against Escherichia coli (Vogel) in mice administered subcutaneously; conditions: sc, read-out: PD50
Staphylococcus aureus = test: In vitro minimum inhibitory concentration against Staphylococcus aureus (ATCC 29213)
Streptococcus pneumoniae = test: In vitro minimum inhibitory concentration against Streptococcus pneumoniae (ATCC 6301)
Escherichia coli = test: In vitro minimum inhibitory concentration against Escherichia coli (ATCC […]25922)
Pseudomonas aeruginosa = test: In vitro minimum inhibitory concentration against Pseudomonas aeruginosa (ATCC 27853)
Mus musculus [2] = test: In vivo antibacterial activity against Escherichia coli (Vogel) in mice administered perorally; conditions: po, read-out: PD50

Row | SMILES | MIC (Enterococcus faecalis) | MIC (Bacteroides fragilis) | ED50 (Mus musculus [1]) | MIC (Staphylococcus aureus) | MIC (Streptococcus pneumoniae) | MIC (Escherichia coli) | MIC (Pseudomonas aeruginosa) | ED50 (Mus musculus [2])
1 | CN1CCN(c2c(F)cc3c(=O)c(C(=O)O)cn4c3c2OCC42CC2)CC1 | 8 mg/L (≈ 21.4 µM) | 8 mg/L (≈ 21.4 µM) | 1.9 mg/kg | 2 mg/L (≈ 5.36 µM) | 8 mg/L (≈ 21.4 µM) | 0.125 mg/L (≈ 0.335 µM) | 4 mg/L (≈ 10.7 µM) | 6.3 mg/kg
2 | O=C(O)c1cn(C2CC2)c2cc(N3CCNCC3)c(F)cc2c1=O [CIPROFLOXACIN] | 0.5 mg/L (≈ 1.51 µM) | 2 mg/L (≈ 6.04 µM) | 0.2 mg/kg | 0.25 mg/L (≈ 0.754 µM) | 0.25 mg/L (≈ 0.754 µM) |  |  | 0.86 mg/kg
3 | C[C@H]1COc2c(N3CCN(C)CC3)c(F)cc3c(=O)c(C(=O)O)cn1c23.C[C@H]1COc2c(N3CCN(C)CC3)c(F)cc3c(=O)c(C(=O)O)cn1c23.O [LEVOFLOXACIN] | 16 mg/L | 16 mg/L | 3.8 mg/kg | 2 mg/L |  |  | 32 mg/L | 10.1 mg/kg
4 | CC1COc2c(N3CCN(C)CC3)c(F)cc3c(=O)c(C(=O)O)cn1c23 (stereo unspecified) [OFLOXACIN] | 2 mg/L (≈ 5.53 µM) | 0.5 mg/L (≈ 1.38 µM) | 1.2 mg/kg | 0.25 mg/L (≈ 0.692 µM) |  |  | 0.5 mg/L (≈ 1.38 µM) | 2.2 mg/kg
